The Kinase Knowledgebase extract (Sharma et al. 2016)

target: EGFR (UniProt P00533)
Sequence (P00533 whole entry, looked up): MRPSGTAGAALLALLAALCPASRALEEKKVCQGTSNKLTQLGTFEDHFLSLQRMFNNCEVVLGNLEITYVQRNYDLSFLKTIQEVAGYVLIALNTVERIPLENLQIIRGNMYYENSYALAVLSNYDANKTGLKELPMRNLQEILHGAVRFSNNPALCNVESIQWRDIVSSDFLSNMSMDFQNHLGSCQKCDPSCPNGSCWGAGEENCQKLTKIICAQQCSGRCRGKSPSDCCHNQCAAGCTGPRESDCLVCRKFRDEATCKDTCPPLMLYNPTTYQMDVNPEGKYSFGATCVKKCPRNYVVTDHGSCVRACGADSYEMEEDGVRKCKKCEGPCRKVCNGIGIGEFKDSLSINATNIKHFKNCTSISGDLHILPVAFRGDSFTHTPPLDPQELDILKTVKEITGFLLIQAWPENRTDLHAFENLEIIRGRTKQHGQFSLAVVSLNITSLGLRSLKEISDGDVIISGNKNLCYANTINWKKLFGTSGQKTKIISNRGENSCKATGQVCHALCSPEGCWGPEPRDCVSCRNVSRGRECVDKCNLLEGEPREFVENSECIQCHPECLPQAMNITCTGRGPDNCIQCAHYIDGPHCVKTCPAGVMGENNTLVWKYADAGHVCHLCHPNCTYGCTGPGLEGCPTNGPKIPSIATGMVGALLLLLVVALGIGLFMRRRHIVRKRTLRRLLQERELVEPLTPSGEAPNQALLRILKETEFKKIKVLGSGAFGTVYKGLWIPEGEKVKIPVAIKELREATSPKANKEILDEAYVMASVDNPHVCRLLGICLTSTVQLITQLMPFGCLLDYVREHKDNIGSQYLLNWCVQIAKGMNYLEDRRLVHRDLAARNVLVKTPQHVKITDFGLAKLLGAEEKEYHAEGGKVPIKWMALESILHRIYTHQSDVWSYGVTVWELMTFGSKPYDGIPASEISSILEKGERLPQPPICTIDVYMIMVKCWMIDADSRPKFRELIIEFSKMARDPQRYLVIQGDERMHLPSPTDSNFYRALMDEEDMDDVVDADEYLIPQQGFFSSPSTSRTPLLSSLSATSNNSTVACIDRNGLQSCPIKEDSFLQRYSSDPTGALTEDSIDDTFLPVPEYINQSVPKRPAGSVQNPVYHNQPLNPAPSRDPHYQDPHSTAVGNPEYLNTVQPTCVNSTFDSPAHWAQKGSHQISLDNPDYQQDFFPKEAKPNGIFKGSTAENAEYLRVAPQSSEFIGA

IC50, 3.5 to 4.5 µg/mL:
CC(C)Nc1ncccc1-c1ncnc(Nc2cccc(CO)c2)n1
COc1cc(Nc2ncnc(-c3cccnc3Nc3cccc(OCc4ccccc4)c3)n2)cc(OC)c1OC
COc1cc(Nc2ncnc(-n3c(Nc4cccc(C(=O)O)c4)nc4ccccc43)n2)cc(OC)c1OC
COc1ccc2c(ccn2-c2ncnc(Nc3cc(OC)c(OC)c(OC)c3)n2)c1
COc1cc(Nc2ncnc(-n3ccc4ccc(Cl)cc43)n2)cc(OC)c1OC

IC50, > 4.5 µg/mL:
O=c1[nH]c2ccccc2n1-c1ncnc(Nc2ccc(-c3cnco3)cc2)n1
FC(F)(F)c1ccc(Cl)c(Nc2ncnc(-n3cccc3)n2)c1
COc1cc(Nc2ncnc(N3CCN(C(=O)OC(C)(C)C)CC3)n2)cc(OC)c1OC
COc1cc(Nc2ncnc(N3CCOCC3)n2)cc(OC)c1OC
COc1cc(Nc2ncnc(N3CCCCC3)n2)cc(OC)c1OC
COc1cc(Nc2ncnc(-n3ccnc3NCc3ccccc3)n2)cc(OC)c1OC
Cc1ccc2c(c1)CCCN2c1ncnc(NCCN2CCOCC2)n1
COC(=O)C(c1ccccc1)c1ncnc(Nc2cc(OC)c(OC)c(OC)c2)n1 (stereo not drawn)
C=CCNc1ncccc1-c1ncnc(Nc2cc(OC)c(OC)c(OC)c2)n1
COc1cc(Nc2ncnc(-c3cccnc3NC(C)c3cccc4ccccc34)n2)cc(OC)c1OC (stereo not drawn)
CC(C)Nc1ncccc1-c1ncnc(Nc2ccc(C(N)=O)cc2)n1
COc1cc(Nc2ncnc(Nc3ccc(NC(=O)OC(C)(C)C)cc3)n2)cc(OC)c1OC
Cc1ccc2c(c1)CCCN2c1ncnc(NCCc2c[nH]c3ccccc23)n1
COC(=O)c1ccc(N(C)c2ncnc(Nc3ccc(OC)c(OC)c3)n2)cc1
CCOC(=O)Cc1cn(-c2ncnc(Nc3cc(OC)c(OC)c(OC)c3)n2)c2ccccc12
COc1cc(Nc2ncnc(-c3cccnc3Nc3ccc(Cl)cc3C)n2)cc(OC)c1OC
COc1cc(Nc2ncnc(-c3ccc(NCCCN)nc3)n2)cc(OC)c1OC
COC(=O)c1ccc(-c2cc(Nc3ncnc(NCCN4CCNC4=O)n3)[nH]n2)cc1
COC(=O)c1ccc(-c2cc(Nc3ncnc(Nc4cccc5ncccc45)n3)[nH]n2)cc1
CCN(CC)CCCCNc1cc(-c2ncnc(Nc3cc(OC)c(OC)c(OC)c3)n2)ccn1
COc1cc(Nc2ncnc(Nc3cc(-c4ccc(C(=O)NCCc5ccccc5)cc4)n[nH]3)n2)cc(OC)c1OC
COc1cc(OC)cc(-c2nnc(Nc3ncnc(Nc4cc(OC)c(OC)c(OC)c4)n3)[nH]2)c1
COc1cc(Nc2ncnc(-n3ccc4c(OC)cccc43)n2)cc(OC)c1OC
Cc1ccc2c(c1)CCCN2c1ncnc(NCCCn2ccnc2)n1
COC(=O)c1ccc(-c2cc(Nc3ncnc(NCCc4ccc(OC)cc4)n3)[nH]n2)cc1
COc1cc(Nc2ncnc(-n3c(Nc4cc(OC)c(OC)c(OC)c4)nc4ccccc43)n2)cc(OC)c1OC
COc1cc(Nc2ncnc(N3CCCC3)n2)cc(OC)c1OC
COc1cc(Nc2ncnc(-c3cccnc3Cl)n2)cc(OC)c1OCCN1CCOCC1

IC50, 0.4 to 2.4 µg/mL:
O=C(O)CCNC(=O)c1ccc(Nc2ncnc(Nc3cc(-c4ccco4)[nH]n3)n2)cc1
COc1cc(C)c(Nc2ncnc(Nc3cc(-c4ccco4)n[nH]3)n2)cc1OC
COc1ccc(Nc2ncnc(Nc3ccc(F)c(F)c3)n2)cc1OC
Cc1ccc2c(c1)CCCN2c1ncnc(Nc2ccc(F)c(F)c2)n1
COc1cc(Nc2ncnc(Nc3cc(OC)c(OC)c(OC)c3)n2)ccc1OCCN1CCOCC1
COc1cc(Nc2ncnc(N3c4ccccc4CCC3C)n2)cc(OC)c1OC (stereo not drawn)
COc1cc(Nc2ncnc(Nc3cnc4ccccc4c3)n2)cc(OC)c1OC
COc1cc(Nc2ncnc(Nc3ccc4c(cnn4C)c3)n2)cc(OC)c1OC

IC50, 2.4 to 3.5 µg/mL:
COc1cc(Nc2ncnc(Nc3ccc(N(C)C)cc3)n2)cc(OC)c1OC
O=c1[nH]c2ccccc2n1-c1ncnc(Nc2ccncn2)n1
c1ccc(CNc2nc3ccccc3n2-c2ncnc(Nc3cccc(Cn4ccnn4)c3)n2)nc1
COc1cc(Nc2ncnc(Nc3cc(-c4ccc(Cl)c(Cl)c4)n[nH]3)n2)cc(OC)c1OC

IC50, < 0.4 µg/mL:
COCCOc1ccc(Nc2ncnc(Nc3ccc4[nH]ccc4c3)n2)cc1OCCOC
COc1cc(Nc2ncnc(N(C/C=C/c3ccccc3)c3ccc(Cl)cc3)n2)cc(OC)c1OC
COc1cc(Nc2ncnc(N(C)c3ccc(Cl)cc3)n2)cc(OC)c1OC
CN(c1cccc(Cl)c1)c1ncnc(Nc2cccc(Cc3nnn[nH]3)c2)n1
CN(c1cccc(Cl)c1)c1ncnc(Nc2ccncc2)n1
CN(c1cccc(Cl)c1)c1ncnc(Nc2cccc(Br)c2)n1
CN(c1cccc(Cl)c1)c1ncnc(Nc2cccc(Cn3ccnn3)c2)n1
CN(c1cccc(Cl)c1)c1ncnc(Nc2ccc(OCCO)cc2)n1
